Results: patent publication US9695155B2, “Herbicidal substituted pyrimidinyloxy benzene compounds” (E. I. DU PONT DE NEMOURS AND COMPANY, priority 2013, dated 2017)

Experiments:
[1] = system: deadnettle; assay: Test D preemergence; format: in vivo, Lamium amplexicaule
Summary of the method: (§1)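 Seeds sown in silt loam soil got preemergence sprays; plants in peat/vermiculite potting medium were sprayed postemergence at 2–18 cm (1- to 4-leaf stage). Chemicals were formulated in a non-phytotoxic solvent mixture with surfactant. After 7 to 21 days in a controlled environment, injury was rated visually versus controls, 0 (no effect) to 100 (complete control).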

[2] = system: speedwell; assay: Test D preemergence; format: in vivo, Veronica persica
Summary of the method: as §1

[3] = system: spring wheat; assay: Test D preemergence; format: in vivo, Triticum aestivum
Summary of the method: as §1

[4] = system: winter wheat; assay: Test D preemergence; format: in vivo, Triticum aestivum
Summary of the method: as §1

[5] = system: wild oat; assay: Test D preemergence; format: in vivo, Avena fatua
Source text: (§2) Seeds of plant species selected from bluegrass (annual bluegrass, Poa annua), blackgrass (Alopecurus myosuroides), canarygrass (littleseed canarygrass, Phalaris minor), chickweed (common chickweed, Stellaria media), galium (catchweed bedstraw, Galium aparine), bromegrass, downy (downy bromegrass, Bromus tectorum), field poppy (Papaver rhoeas), field violet (Viola arvensis), green foxtail (Setaria viridis), deadnettle (henbit deadnettle, Lamium amplexicaule), Italian ryegrass (Lolium multiflorum), kochia (Kochia scoparia), lambsquarters (Chenopodium album), oilseed rape (Brassica napus), pigweed (Amaranthus retroflexus), chamomile (scentless chamomile, Matricaria inodora), Russian thistle (Salsola kali), speedwell (bird's-eye speedwell, Veronica persica), spring barley (Hordeum vulgare), spring wheat (Triticum aestivum), wild buckwheat (Polygonum convolvulus), wild mustard (Sinapis arvensis), wild oat (Avena fatua), wild radish (Raphanus raphanistrum), windgrass (Apera spica-venti), winter barley (Hordeum vulgare), and winter wheat (Triticum aestivum) were planted into a silt loam soil and treated preemergence with test chemicals formulated in a non-phytotoxic solvent mixture which included a surfactant.
(§3) At the same time, these species were planted in pots containing Redi-Earth® planting medium (Scotts Company, 14111 Scottslawn Road, Marysville, Ohio 43041) comprising spaghnum peat moss, vermiculite, wetting agent and starter nutrients and treated with postemergence applications of the test chemicals formulated in the same manner. Plants ranged in height from 2 to 18 cm (1- to 4-leaf stage). Treated plants and controls were maintained in a controlled growth environment for 7 to 21 days after which time all species were compared to controls and visually evaluated. Plant response ratings, summarized in Table D, are based on a scale of 0 to 100 where 0 is no effect and 100 is complete control. A dash (-) response means no test result.

[6] = system: wild radish; assay: Test D preemergence; format: in vivo, Raphanus raphanistrum
Source text: as §2, §3

[7] = system: bluegrass; assay: Test D postemergence; format: in vivo, Poa annua
Summary of the method: as §1

[8] = system: field poppy; assay: Test D postemergence; format: in vivo, Papaver rhoeas
Summary of the method: as §1

[9] = system: field violet; assay: Test D postemergence; format: in vivo, Viola arvensis
Source text: as §2, §3

[10] = 16 g ai/ha, scale 0 (no effect) to 100 (complete control)
[11] = 31 g ai/ha, scale 0 (no effect) to 100 (complete control)
[12] = 31 g ai/ha, scale 0 to 100 (0 no effect, 100 complete control)
[13] = 62 g ai/ha, scale 0 to 100 (0 no effect, 100 complete control)
[14] = 250 g ai/ha, scale 0 to 100 (0 no effect, 100 complete control)

Clc1cnc(Oc2ccccc2-n2cc(Cl)cn2)nc1 [Compound 3]
50: Plant response rating, Deadnettle ([1]; 250 g ai/ha, scale 0-100)
60: Plant response rating, Radish, Wild ([6]; 62 g ai/ha, scale 0-100)
95: Plant response rating, Radish, Wild ([6]; 250 g ai/ha, scale 0-100)
100: Plant response rating, Speedwell [2, 10] | Plant response rating, Speedwell [2, 11] | Plant response rating, Speedwell ([2]; 62 g ai/ha, scale 0-100) | Plant response rating, Speedwell ([2]; 125 g ai/ha, scale 0-100) | Plant response rating, Speedwell ([2]; 250 g ai/ha, scale 0-100)
20: Plant response rating, Radish, Wild [6, 11] | Plant response rating, Field Violet ([9]; 16 g ai/ha, scale 0-100) | Plant response rating, Field Violet [9, 14]
5: Plant response rating, Field Violet [9, 12] | Plant response rating, Field Violet [9, 13] | Plant response rating, Field Violet ([9]; 125 g ai/ha, scale 0 to 100 (0 no effect, 100 complete control))
30: Plant response rating, Deadnettle [1, 10] | Plant response rating, Deadnettle ([1]; 31 g ai/ha, scale 0-100)
40: Plant response rating, Deadnettle ([1]; 62 g ai/ha, scale 0-100) | Plant response rating, Deadnettle ([1]; 125 g ai/ha, scale 0-100) | Plant response rating, Bluegrass ([7]; postemergence, 16 g ai/ha, scale 0 to 100, 0 no effect, 100 complete control)
0: Plant response rating, Wheat, Spring [3, 10] | Plant response rating, Wheat, Spring [3, 11] | Plant response rating, Wheat, Spring ([3]; 62 g ai/ha, scale 0-100) | Plant response rating, Wheat, Spring ([3]; 125 g ai/ha, scale 0-100) | Plant response rating, Wheat, Spring ([3]; 250 g ai/ha, scale 0-100) | Plant response rating, Wheat, Winter [4, 10] | Plant response rating, Wheat, Winter [4, 11] | Plant response rating, Wheat, Winter ([4]; 62 g ai/ha, scale 0-100) | Plant response rating, Wheat, Winter ([4]; 125 g ai/ha, scale 0-100) | Plant response rating, Wheat, Winter ([4]; 250 g ai/ha, scale 0-100) | Plant response rating, Oat, Wild [5, 10] | Plant response rating, Oat, Wild ([5]; 31 g ai/ha, scale 0-100) | Plant response rating, Oat, Wild ([5]; 62 g ai/ha, scale 0-100) | Plant response rating, Oat, Wild ([5]; 125 g ai/ha, scale 0-100) | Plant response rating, Radish, Wild [6, 10] | Plant response rating, Bluegrass ([7]; Postemergence, 62 g ai/ha, scale 0 to 100 (0 no effect, 100 complete control)) | Plant response rating, Bluegrass ([7]; Postemergence, 31 g ai/ha, scale 0 to 100 (0 no effect, 100 complete control)) | Plant response rating, Bluegrass ([7]; Postemergence, 125 g ai/ha, scale 0 to 100 (0 no effect, 100 complete control)) | Plant response rating, Field Poppy [8, 12] | Plant response rating, Field Poppy [8, 13] | Plant response rating, Field Poppy [8, 14]
10: Plant response rating, Oat, Wild ([5]; 250 g ai/ha, scale 0-100) | Plant response rating, Bluegrass ([7]; Postemergence, 250 g ai/ha, scale 0 to 100 (0 no effect, 100 complete control)) | Plant response rating, Field Poppy ([8]; 16 g ai/ha, scale 0-100)
90: Plant response rating, Radish, Wild ([6]; 125 g ai/ha, scale 0-100)

FC(F)(F)c1cn(-c2ccccc2Oc2ncc(Cl)cn2)nn1 [Compound 166, 5-chloro-2-[2-[4-(trifluoromethyl)-1H-1,2,3-triazol-1-yl]phenoxy]pyrimidine]
20%: pest or weed control at 16 g/ha ([7]; Poa annua, post-emergence, Postemergence, 16 g ai/ha, scale 0 to 100 (0 no effect, 100 complete control), read-out: Plant response rating, Bluegrass)
75%: pest or weed control at 31 g/ha ([1]; Lamium amplexicaule, pre-emergence, 31 g ai/ha, scale 0-100, read-out: Plant response rating, Deadnettle) | pest or weed control at 125 g/ha ([5]; Avena fatua, pre-emergence, 125 g ai/ha, scale 0-100, read-out: Plant response rating, Oat, Wild) | pest or weed control at 125 g/ha ([8]; Papaver rhoeas, post-emergence, 125 g ai/ha, scale 0 to 100 (0 no effect, 100 complete control), read-out: Plant response rating, Field Poppy)
40%: pest or weed control at 31 g/ha ([7]; Poa annua, post-emergence, Postemergence, 31 g ai/ha, scale 0 to 100 (0 no effect, 100 complete control), read-out: Plant response rating, Bluegrass) | pest or weed control at 16 g/ha ([8]; Papaver rhoeas, post-emergence, 16 g ai/ha, scale 0-100, read-out: Plant response rating, Field Poppy)
70%: pest or weed control at 16 g/ha ([1]; Lamium amplexicaule, pre-emergence, 16 g ai/ha, scale 0 (no effect) to 100 (complete control), read-out: Plant response rating, Deadnettle) | pest or weed control at 62 g/ha ([9]; Viola arvensis, post-emergence, 62 g ai/ha, scale 0 to 100 (0 no effect, 100 complete control), read-out: Plant response rating, Field Violet)
85%: pest or weed control at 125 g/ha ([9]; Viola arvensis, post-emergence, 125 g ai/ha, scale 0 to 100 (0 no effect, 100 complete control), read-out: Plant response rating, Field Violet)
10%: plant injury at 62 g/ha ([3]; Triticum aestivum, pre-emergence, 62 g ai/ha, scale 0-100, read-out: Plant response rating, Wheat, Spring)
80%: pest or weed control at 31 g/ha ([6]; Raphanus raphanistrum, pre-emergence, 31 g ai/ha, scale 0 (no effect) to 100 (complete control), read-out: Plant response rating, Radish, Wild) | pest or weed control at 62 g/ha ([8]; Papaver rhoeas, post-emergence, 62 g ai/ha, scale 0 to 100 (0 no effect, 100 complete control), read-out: Plant response rating, Field Poppy)
25%: plant injury at 125 g/ha ([4]; Triticum aestivum, pre-emergence, 125 g ai/ha, scale 0-100, read-out: Plant response rating, Wheat, Winter)
55%: pest or weed control at 62 g/ha ([5]; Avena fatua, pre-emergence, 62 g ai/ha, scale 0-100, read-out: Plant response rating, Oat, Wild) | pest or weed control at 16 g/ha ([6]; Raphanus raphanistrum, pre-emergence, 16 g ai/ha, scale 0 (no effect) to 100 (complete control), read-out: Plant response rating, Radish, Wild) | pest or weed control at 62 g/ha ([7]; Poa annua, post-emergence, Postemergence, 62 g ai/ha, scale 0 to 100 (0 no effect, 100 complete control), read-out: Plant response rating, Bluegrass)
100%: pest or weed control at 62 g/ha ([1]; Lamium amplexicaule, pre-emergence, 62 g ai/ha, scale 0-100, read-out: Plant response rating, Deadnettle) | pest or weed control at 125 g/ha ([1]; Lamium amplexicaule, pre-emergence, 125 g ai/ha, scale 0-100, read-out: Plant response rating, Deadnettle) | pest or weed control at 16 g/ha ([2]; Veronica persica, pre-emergence, 16 g ai/ha, scale 0 (no effect) to 100 (complete control), read-out: Plant response rating, Speedwell) | pest or weed control at 31 g/ha ([2]; Veronica persica, pre-emergence, 31 g ai/ha, scale 0 (no effect) to 100 (complete control), read-out: Plant response rating, Speedwell) | pest or weed control at 62 g/ha ([2]; Veronica persica, pre-emergence, 62 g ai/ha, scale 0-100, read-out: Plant response rating, Speedwell) | pest or weed control at 125 g/ha ([2]; Veronica persica, pre-emergence, 125 g ai/ha, scale 0-100, read-out: Plant response rating, Speedwell) | pest or weed control at 62 g/ha ([6]; Raphanus raphanistrum, pre-emergence, 62 g ai/ha, scale 0-100, read-out: Plant response rating, Radish, Wild) | pest or weed control at 125 g/ha ([6]; Raphanus raphanistrum, pre-emergence, 125 g ai/ha, scale 0-100, read-out: Plant response rating, Radish, Wild)
30%: pest or weed control at 31 g/ha ([5]; Avena fatua, pre-emergence, 31 g ai/ha, scale 0-100, read-out: Plant response rating, Oat, Wild)
60%: plant injury at 125 g/ha ([3]; Triticum aestivum, pre-emergence, 125 g ai/ha, scale 0-100, read-out: Plant response rating, Wheat, Spring) | pest or weed control at 31 g/ha ([8]; Papaver rhoeas, post-emergence, 31 g ai/ha, scale 0 to 100 (0 no effect, 100 complete control), read-out: Plant response rating, Field Poppy) | pest or weed control at 16 g/ha ([9]; Viola arvensis, post-emergence, 16 g ai/ha, scale 0-100, read-out: Plant response rating, Field Violet)
0%: plant injury at 16 g/ha ([3]; Triticum aestivum, pre-emergence, 16 g ai/ha, scale 0 (no effect) to 100 (complete control), read-out: Plant response rating, Wheat, Spring) | plant injury at 31 g/ha ([3]; Triticum aestivum, pre-emergence, 31 g ai/ha, scale 0 (no effect) to 100 (complete control), read-out: Plant response rating, Wheat, Spring) | plant injury at 16 g/ha ([4]; Triticum aestivum, pre-emergence, 16 g ai/ha, scale 0 (no effect) to 100 (complete control), read-out: Plant response rating, Wheat, Winter) | plant injury at 31 g/ha ([4]; Triticum aestivum, pre-emergence, 31 g ai/ha, scale 0 (no effect) to 100 (complete control), read-out: Plant response rating, Wheat, Winter) | plant injury at 62 g/ha ([4]; Triticum aestivum, pre-emergence, 62 g ai/ha, scale 0-100, read-out: Plant response rating, Wheat, Winter) | pest or weed control at 16 g/ha ([5]; Avena fatua, pre-emergence, 16 g ai/ha, scale 0 (no effect) to 100 (complete control), read-out: Plant response rating, Oat, Wild)
65%: pest or weed control at 125 g/ha ([7]; Poa annua, post-emergence, Postemergence, 125 g ai/ha, scale 0 to 100 (0 no effect, 100 complete control), read-out: Plant response rating, Bluegrass) | pest or weed control at 31 g/ha ([9]; Viola arvensis, post-emergence, 31 g ai/ha, scale 0 to 100 (0 no effect, 100 complete control), read-out: Plant response rating, Field Violet)
